According to US10723695B2, “Microbiocidal phenylamidine derivatives” (SYNGENTA PARTICIPATIONS AG, priority 2015, dated 2020):

Legend:
Assay type in all cases: in vivo
[1] = system: Blumeria graminis f. sp. tritici (Erysiphe graminis f. sp. tritici); assay: Blumeria graminis f. sp. tritici / wheat / leaf disc preventative (powdery mildew on wheat); conditions: foliar, wheat leaf segments cv. Kanzler, compared to untreated control leaf disks, read-out: disease control
Source text: Blumeria graminis f. sp. tritici (Erysiphe graminis f. sp. tritici)/Wheat/Leaf Disc Preventative (Powdery Mildew on Wheat) Wheat leaf segments cv. Kanzler were placed on agar in a multiwell plate (24-well format) and sprayed with the formulated test compound diluted in water. The leaf disks were inoculated by shaking powdery mildew infected plants above the test plates 1 day after application.

[2] = system: Puccinia recondita f. sp. tritici; assay: Puccinia recondita f. sp. tritici / wheat / leaf disc curative (brown rust); conditions: foliar, 24 h, wheat leaf segments cv. Kanzler, curative (applied 1 day after inoculation), compared to untreated control leaf disks, read-out: disease control
Protocol: Puccinia recondita f. sp. tritici/Wheat/Leaf Disc Curative (Brown Rust) Wheat leaf segments cv. Kanzler are placed on agar in multiwell plates (24-well format). The leaf segments are inoculated with a spore suspension of the fungus. Plates were stored in darkness at 19° C. and 75% rh. The formulated test compound diluted in water was applied 1 day after inoculation.

[3] = system: Puccinia recondita f. sp. tritici; assay: Puccinia recondita f. sp. tritici / wheat / leaf disc preventative (brown rust); conditions: foliar, wheat leaf segments cv. Kanzler, compared to untreated control leaf disks, read-out: disease control
Protocol: Puccinia recondita f. sp. tritici/Wheat/Leaf Disc Preventative (Brown Rust) Wheat leaf segments cv. Kanzler were placed on agar in multiwell plates (24-well format) and sprayed with the formulated test compound diluted in water. The leaf disks were inoculated with a spore suspension of the fungus 1 day after application. The inoculated leaf segments were incubated at 19° C. and 75% rh under a light regime of 12 h light/12 h darkness in a climate cabinet and the activity of a compound was assessed as percent disease control compared to untreated when an appropriate level of disease damage appears in untreated check leaf segments (7-9 days after application).

Phakopsora pachyrhizi = Phakopsora pachyrhizi / soybean / leaf disk preventative (soybean rust); conditions: foliar, soybean leaf disks, compared to untreated control leaf disks, read-out: disease control
Protocol: Phakopsora pachyrhizi/Soybean/Leaf Disk Preventative (Soybean Rust) Four-week old soybean plants are sprayed in a spray chamber with the formulated test compound diluted in water. Leaf disks are cut from treated plants and placed on agar into 24-well plates one day after application. Leaf disks are inoculated by spraying them with a spore suspension on their lower leaf surface. After an incubation period in a climate cabinet of 24-36 hours in darkness at 20° C. and 75% rh, the leaf disks are then kept at 20° C. with 12 h light/day and 75% rh. The percentage leaf disk area covered by disease is assessed when an appropriate level of disease appears on untreated check plants (12-14 days after application).

Measured: pest or weed control at 200 ppm

CCN(C)/C=N/c1cc(OC)c(C(C)(O)c2ccccc2)cc1C (stereo not shown) [Compound E1.007, N-ethyl-N′-[4-(1-hydroxy-1-phenyl-ethyl)-5-methoxy-2-methyl-phenyl]-N-methyl-formamidine]
≥ 80%: all assays above

CCN(C)/C=N/c1cc(OC)c(C(O)(c2cccc(Cl)n2)C(F)(F)F)cc1C (stereo not shown) [Compound E1.106]
≥ 80%: all assays above

CCN(C)/C=N/c1cc(OC)c(C(O)(C2CC2)C(F)(F)Cl)cc1C (stereo not shown) [Compound E1.120]
≥ 80%: all assays above

CCN(C)/C=N/c1cc(OC)c(C(O)(c2ccc(SC(F)F)cc2)C(F)(F)F)cc1C (stereo not shown) [Compound E1.038]
≥ 80%: [1] | [2]

CCCCC(O)(c1cc(C)c(/N=C/N(C)CC)cc1SC)C(F)(F)F (stereo not shown) [Compound E1.114]
≥ 80%: [1] | [2] | Phakopsora pachyrhizi

CCN(C)/C=N/c1cc(OC)c(C(O)(C2CCC(C)CC2)C(F)(F)F)cc1C (stereo not shown) [Compound E1.062]
≥ 80%: all assays above

CCN(C)/C=N/c1cc(OC)c(C(O)(c2cccnc2OC)C(F)(F)F)cc1C (stereo not shown) [Compound E1.112]
≥ 80%: all assays above

CCN(C)/C=N/c1cc(OC)c(C(O)(CC(C)(C)C)C(F)(F)F)cc1C (stereo not shown) [Compound E1.066]
≥ 80%: all assays above

CCN(C)/C=N/c1cc(OC)c(C(O)(c2cc(Cl)cc(Cl)c2)C(F)(F)F)cc1C (stereo not shown) [Compound E1.013]
≥ 80%: [1] | [2] | [3]

CCN(C)/C=N/c1cc(OC)c(C(O)(c2ccc(C)s2)C(F)(F)F)cc1C (stereo not shown) [Compound E1.104]
≥ 80%: all assays above

CCN(C)/C=N/c1cc(OC)c(C(O)C(F)(F)Cl)cc1C (stereo not shown) [Compound E1.118]
≥ 80%: all assays above

CCN(C)/C=N/c1cc(OC)c(C(O)(c2cnn(-c3ccccc3)c2)C(F)(F)F)cc1C (stereo not shown) [Compound E1.109]
≥ 80%: [1] | [2] | [3]

CCN(C)/C=N/c1cc(OC)c(C(O)(c2cccs2)C(F)(F)F)cc1C (stereo not shown) [Compound E1.105]
≥ 80%: all assays above

CCCCC(O)(c1cc(Cl)c(/N=C/N(C)CC)cc1OC)C(F)(F)F (stereo not shown) [Compound E1.117]
≥ 80%: all assays above

CCCCCC(O)(c1cc(C)c(/N=C/N(C)CC)cc1OC)C(F)(F)F (stereo not shown) [Compound E1.065]
≥ 80%: all assays above

CCN(C)/C=N/c1cc(OC)c(C(O)(CC(C)C)C(F)(F)F)cc1C (stereo not shown) [Compound E1.051]
≥ 80%: all assays above

CCN(C)/C=N/c1cc(OC)c(C(O)(Cn2cncn2)C(F)(F)F)cc1C (stereo not shown) [Compound E1.098]
≥ 80%: [1] | [2] | [3]

CCN(C)/C=N/c1cc(OC)c(C(O)(Cc2ccc(F)cc2)C(F)(F)F)cc1C (stereo not shown) [Compound E1.091]
≥ 80%: [1] | [2] | Phakopsora pachyrhizi

COc1cc(/N=C/N(C)C(C)C)c(C)cc1C(O)(C1CCCC1)C(F)(F)F (stereo not shown) [Compound E1.060]
≥ 80%: [1] | [2] | [3]

C=CCC(O)(c1cc(C)c(/N=C/N(C)CC)cc1OC)C(F)(F)Cl (stereo not shown) [Compound E1.121]
≥ 80%: all assays above

CCN(C)/C=N/c1cc(OC)c(C(O)c2ccccc2)cc1C (stereo not shown) [Compound E1.123]
≥ 80%: all assays above

CCN(C)/C=N/c1cc(OC)c([C@@](O)(c2ccccc2)C(F)(F)F)cc1C [Compound E1.015]
≥ 80%: all assays above

C=C(C)C(O)(c1cc(C)c(/N=C/N(C)CC)cc1OC)C(F)(F)F (stereo not shown) [Compound E1.078]
≥ 80%: all assays above

CCN(C)/C=N/c1cc(OC)c(C(O)(Cc2ccnc(F)c2)C(F)(F)F)cc1C (stereo not shown) [Compound E1.101]
≥ 80%: all assays above

CCN(C)/C=N/c1cc(OC)c(C(O)(Cn2cc3ccccc3n2)C(F)(F)F)cc1C (stereo not shown) [Compound E1.092]
≥ 80%: [1] | [2] | [3]

CCN(C)/C=N/c1cc(OC)c(C(O)(c2cc3ccccc3s2)C(F)(F)F)cc1C (stereo not shown) [Compound E1.103]
≥ 80%: all assays above

CCN(C)/C=N/c1cc(OC)c(C(O)(Cn2nc(C)c(C)c2C)C(F)(F)F)cc1C (stereo not shown) [Compound E1.095]
≥ 80%: all assays above

C=CC(O)(c1cc(C)c(/N=C/N(C)CC)cc1OC)C(F)(F)F (stereo not shown) [Compound E1.077]
≥ 80%: all assays above

CCCCC(O)(c1cc(C)c(/N=C/N(C)C2CC2)cc1OC)C(F)(F)F (stereo not shown) [Compound E1.049]
≥ 80%: all assays above

CCN(C)/C=N/c1cc(OC)c(C(O)(Cc2ccc(C)cc2)C(F)(F)F)cc1C (stereo not shown) [Compound E1.087]
≥ 80%: all assays above

CCN(C)/C=N/c1cc(OC)c(C(O)(C2=CCCC2)C(F)(F)F)cc1C (stereo not shown) [Compound E1.079]
≥ 80%: [1] | [2] | [3]

CCN(C)/C=N/c1cc(OC)c(C(O)(c2cccc(SC)c2)C(F)(F)F)cc1C (stereo not shown) [Compound E1.042]
≥ 80%: [1] | [2]

CCN(C)/C=N/c1cc(OC)c(C(O)(Cc2cccc(F)n2)C(F)(F)F)cc1C (stereo not shown) [Compound E1.102]
≥ 80%: [1] | [2] | Phakopsora pachyrhizi

CCN(C)/C=N/c1cc(OC)c(C(O)(Cn2nc(C)c(Cl)c2C)C(F)(F)F)cc1C (stereo not shown) [Compound E1.096]
≥ 80%: Phakopsora pachyrhizi

CCN(C)/C=N/c1cc(OC)c(C(O)(c2cnn(C(C)C)c2)C(F)(F)F)cc1C (stereo not shown) [Compound E1.110]
≥ 80%: [2] | [3]

CCN(C)/C=N/c1cc(OC)c(C(O)(C2=CCCCC2)C(F)(F)F)cc1C (stereo not shown) [Compound E1.080]
≥ 80%: [1] | [2] | [3]

COc1cc(/N=C/N(C)C2CC2)c(C)cc1C(O)(c1ccccc1)C(F)(F)F (stereo not shown) [Compound E1.008]
≥ 80%: [2] | [3]

CCN(C)/C=N/c1cc(OC)c(C(O)(c2cnn(CC)c2)C(F)(F)F)cc1C (stereo not shown) [Compound E1.111]
≥ 80%: [2] | [3] | Phakopsora pachyrhizi
